Literature values in patent US11453692B2, “Non-caloric sweeteners and methods for synthesizing” (Conagen Inc., priority 2014, dated 2022).

Conditions: sweetness relative to sucrose

| Molecule | times sweeter than sucrose |
| --- | --- |
| C=C1C[C@@]23CCC4[C@](C)(C(=O)OC5OC(CO)C(O)C(O)C5O)CCC[C@@]4(C)[C@@H]2CC(OC2OC(CO)C(O)C(OC4OC(CO)C(O)C(O)C4O)C2OC2OC(C)C(O)C(O)C2O)C1C3 (some centres unmarked) [Rebaudioside C] | 40-60 times |
| Stevioside | 100-150 times |
